Experimental findings from PMC12263422, “Cryo-EM structure of the human THIK-1 K2P K^+ channel reveals a lower Y gate regulated by lipids and anesthetics” (Nature Structural & Molecular Biology, 2025) are described below.

The structures appear in SMILES notation. Changes are numbered by the printed parent chain. Where “and” joins values, the source holds several entries; their conditions need not be identical. Equal values may be shown once.

What is called inhibition is the relative decrease from the control value, in per cent. A lower inhibition goes with a response near the control. Usually IC50 stands for the midpoint of a concentration-inhibition curve. The low end stands for greater potency in that assay, the high end for weaker potency in that assay.

For one assay, the target named is T1, THIK-1 T237A (Homo sapiens, UniProt Q9HB14, T237A).
T1 construct: expressed in transfected cells; host or cells: Xenopus oocytes (mRNA injection)
T1 sequence (Q9HB14 1-408 T237A): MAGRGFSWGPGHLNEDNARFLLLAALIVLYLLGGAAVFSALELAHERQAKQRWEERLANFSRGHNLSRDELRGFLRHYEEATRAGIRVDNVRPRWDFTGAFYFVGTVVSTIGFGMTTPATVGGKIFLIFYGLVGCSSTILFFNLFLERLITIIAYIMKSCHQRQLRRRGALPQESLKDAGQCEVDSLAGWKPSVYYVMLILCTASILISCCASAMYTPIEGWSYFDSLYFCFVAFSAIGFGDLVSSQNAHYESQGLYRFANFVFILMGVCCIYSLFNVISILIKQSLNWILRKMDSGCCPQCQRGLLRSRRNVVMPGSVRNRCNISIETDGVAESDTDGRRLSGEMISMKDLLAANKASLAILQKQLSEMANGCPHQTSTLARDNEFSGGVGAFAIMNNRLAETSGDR
In words: Inside-out excised patch recordings, oocytes, THIK-1 T237A mutant. The assay is classed as cell-based. The text has this: (§1) Human K2P13.1 THIK-1 (GenBank accession number: NM_022054) and human K2P12.1 THIK-2 (NM_022055.1) were used in this study. For functional expression studies, the respective K^+ channel subtype coding sequences were subcloned into the oocyte expression vector pSGEM or the dual-purpose expression vector pFAW[41] and verified by sequencing. All mutant channels were obtained by site-directed mutagenesis and verified by sequencing. To increase surface expression and macroscopic currents, measurements of THIK-2 channels used a mutated ER retention motif, (R11A R12A R14A R15A R16A; THIK-2*)[20]. Vector DNA was linearized with NheI or MluI, and mRNA was synthesized in vitro using the SP6 or T7 AmpliCap Max High Yield Message Maker Kit (Cellscript, USA) or HiScribe T7 ARCA mRNA Kit (New England Biolabs).
(§2) Two-electrode voltage–clamp (TEVC) studies were performed in Xenopus oocytes. All animal use conformed to the Guide for the Care and Use of Laboratory Animals (NIH Publication 85–23), and all experiments using Xenopus toads were approved by the local ethics panels. Oocytes were stored at 17 °C in ND96 recording solution composed of (in mM): 96 NaCl, 2 KCl, 1.8 CaCl2, 1 MgCl2, 5 HEPES (pH 7.5 adjusted with NaOH and HCl), supplemented with Na-pyruvate (275 mg L^–1), theophylline (90 mg L^–1) and gentamicin (50 mg L^–1). Oocytes were injected with 1 ng mRNA for WT or mutant channels, and were incubated for 24–48 h at 17 °C. Two-electrode voltage clamp recordings were then performed as previously described[42],[43]. For macroscopic patch–clamp measurements, oocytes were obtained as described above incubated at 17 °C in a solution containing (mM): 54 NaCl, 30 KCl, 2.4 NaHCO3, 0.82 MgSO4 ×7 H2O, 0.41 CaCl2, 0.33 Ca(NO3)2 ×4 H2O and 7.5 TRIS (pH 7.4 adjusted with NaOH and HCl) for 1–4 days before use. Excised patch recordings in inside-out configuration conditions were performed at room temperature. Patch pipettes were made from thick-walled borosilicate glass GB 200TF-8P (Science Products), had resistances of 0.2–0.5 MΩ (tip diameter, 10–25 µm) and filled with a pipette solution (in mM): 120 KCl, 10 HEPES and 3.6 CaCl2 (pH 7.4 adjusted with KOH and HCl). Intracellular bath solutions and compounds were applied to the cytoplasmic side of excised patches for the various K^+ channels through a gravity flow multi-barrel pipette system. The intracellular solution had the following composition (in mM): 120 KCl, 10 HEPES, 2 EGTA and 1 pyrophosphate (pH adjusted with KOH and HCl). Currents were recorded with an EPC10 amplifier (HEKA Electronics) and sampled at 10 kHz or higher, with filtering set to 3 kHz (–3 dB) or higher, as appropriate for sampling rate. For measurements of GPCR activation, whole-cell currents were recorded for THIK-1 in transiently transfected HEK-293 cells. Cells were stimulated by a ramp protocol between −100 and +60 mV (holding potential, −80 mV). The pipette solution was composed of (in mM): 140 KCl, 2 MgCl2, 1 CaCl2, 2.5 EGTA and 10 HEPES (pH 7.3 adjusted with KOH and HCl). The extracellular bath solution had the following composition (in mM): 135 NaCl, 5 KCl, 2 MgCl2, 2 CaCl2, 10 glucose and 10 HEPES pH (pH 7.3 adjusted with NaOH and HCl). Oxotremorine M (Oxo-M) was added to extracellular bath solution to obtain the final concentration. Single-channel currents were recorded with an Axopatch 200B amplifier through a Digidata 1440A digitizer (Molecular Devices). Data were filtered at 2 kHz and recorded at a 200-kHz sampling rate with the program Clampex (Molecular Devices). Pipette solution and bath solution for cell-attached recordings contained (in mM): 140 KCl, 2 MgCl2, 1 CaCl2 and 10 HEPES (pH 7.4 adjusted with KOH and HCl). For inside-out recordings, the bath solution contained (in mM): 140 KCl, 2 MgCl2, 1 CaCl2 and 10 HEPES (pH 7.2 adjusted with KOH and HCl). All experiments were conducted at room temperature. […]

In the next assay the target is T2, THIK-1 T110A (Homo sapiens, UniProt Q9HB14, T110A).
T2 construct: expressed in transfected cells; host or cells: Xenopus oocytes (mRNA injection)
T2 sequence (Q9HB14 1-408 T110A): T1 sequence (Q9HB14 1-408 T237A) with T110A, A237T
The experiment in a line: Inside-out excised patch recordings, oocytes, THIK-1 T110A mutant. Format: cell-based.
Text: as §1, §2

On to `FC(F)OC(Cl)C(F)(F)F` (centres unmarked) [Isoflurane, isoflurane], for which the “Inhibition (%)” value on THIK-1 T237A (4.9 mM Isoflurane, T237A, individual recordings) was 17.406% and 8.395% and 11.371% and 16.439% and 18.927% and 20.492% and 11.299%. In addition, on THIK-1 T237A (isoflurane 0.242 mM, THIK-1 T237A), the inhibition at 242 µM was found to be 3.32%. Besides, the inhibition at 485 µM against THIK-1 T237A (isoflurane 0.485 mM, THIK-1 T237A) stood at 6.3%. At THIK-1 T237A (isoflurane 2.42 mM, THIK-1 T237A), the inhibition at 2420 µM came out at 10.5%. At THIK-1 T237A (isoflurane 4.85 mM, THIK-1 T237A), this compound displayed an inhibition at 4850 µM of 14.9%. Besides, the inhibition at 24200 µM at THIK-1 T237A (isoflurane 24.2 mM, THIK-1 T237A) was 41.2%.
As for `FCOC(C(F)(F)F)C(F)(F)F` [Sevoflurane, sevoflurane], on THIK-1 T237A (0.24 mM Sevoflurane, T237A, individual recordings), the “Inhibition (%)” value is 3.46% and 13.30% and 10.43% and 14.31% and 9.40% and 9.31%. The compound also showed an inhibition at 240 µM at THIK-1 T237A (0.24 mM Sevoflurane, T237A, mean) of 10%. Besides, 23 µM produced 2.46% inhibition against THIK-1 T237A (THIK-1 T237A, 0.023 mM sevoflurane). Moreover, the inhibition at 47 µM against THIK-1 T237A (THIK-1 T237A, 0.047 mM sevoflurane) turned out to be 5.91%. This compound also returned an inhibition at 468 µM against THIK-1 T237A (THIK-1 T237A, 0.468 mM sevoflurane) of 21.7%. On THIK-1 T237A (THIK-1 T237A, 2.34 mM sevoflurane), this compound yielded an inhibition at 2340 µM of 65.6%.
Turning to `CCCCC[N+](CCCCC)(CCCCC)CCCCC` [TPenA, tetrapentylammonium], the Normalized currents was 1.00 at THIK-1 T110A (THIK-1 T110A, 15.6 µM TPenA); 0.95 on THIK-1 T110A (THIK-1 T110A, 62.5 µM TPenA); 0.81 on THIK-1 T110A (THIK-1 T110A, 250 µM TPenA); 0.57 on THIK-1 T110A (THIK-1 T110A, 1000 µM TPenA); 0.28 on THIK-1 T110A (THIK-1 T110A, 4000 µM TPenA). The IC50 against THIK-1 T110A (TPenA IC50, T110A mutant) is 1.28 mM; at THIK-1 T110A (TPenA IC50, THIK-1 T110A, individual recordings), 0.583 mM and 1.57 mM and 0.596 mM and 1.53 mM and 2.42 mM and 1.85 mM and 1.14 mM and 1.6 mM and 1.21 mM and 0.982 mM and 0.651 mM; at THIK-1 T110A (TPenA IC50, THIK-1 T110A, mean) it was 1.28 mM; on THIK-1 T237A (TPenA IC50, T237A mutant), 751 ± 69 µM; against THIK-1 T237A (TPenA IC50, THIK-1 T237A, individual recordings), 1130 µM and 808 µM and 597 µM and 535 µM and 580 µM and 782 µM and 1030 µM and 536 µM and 917 µM and 590 µM; at THIK-1 T237A (TPenA IC50, THIK-1 T237A, mean) it was 751 µM.
As for `FC(F)(F)C(Cl)Br` (centres unmarked) [halothane], the “Inhibition (%)” value at THIK-1 T110A (3.0 mM halothane, T110A, individual recordings) is 71.250% and 68.098% and 66.319% and 64.813% and 55.507% and 41.148% and 63.240% and 65.945% and 75.271%; on THIK-1 T237A (3.0 mM halothane, T237A, individual recordings), 33.289% and 24.219% and 32.586% and 20.723% and 17.184% and 21.968% and 14.425% and 17.317% and 20.857% and 12.818% and 13.953% and 26.198% and 19.691% and 2.253% and 19.772% and 18.717% and 25.052% and 20.656% and 33.770% and 18.734% and 25.692% and 28.421% and 33.333%. Moreover, the inhibition at 152 µM at THIK-1 T110A (halothane 0.152 mM, THIK-1 T110A) was 9.23%; against THIK-1 T237A (halothane 0.152 mM, THIK-1 T237A) it was 2.14%. Further, the inhibition at 304 µM against THIK-1 T110A (halothane 0.304 mM, THIK-1 T110A) was determined as 14.1%; on THIK-1 T237A (halothane 0.304 mM, THIK-1 T237A) it was 5.74%. Further, the inhibition at 1520 µM against THIK-1 T110A (halothane 1.52 mM, THIK-1 T110A) amounted to 45.3%; on THIK-1 T237A (halothane 1.52 mM, THIK-1 T237A) it was 14%. For the same compound, the inhibition at 3040 µM was determined as 63.5% against THIK-1 T110A (halothane 3.04 mM, THIK-1 T110A) and 21.8% against THIK-1 T237A (halothane 3.04 mM, THIK-1 T237A). Moreover, the inhibition at 15200 µM on THIK-1 T110A (halothane 15.2 mM, THIK-1 T110A) is 89.5%; against THIK-1 T237A (halothane 15.2 mM, THIK-1 T237A), 61.5%.
